According to article PMC5908160, “Inhibition of sperm motility in male macaques with EP055, a potential non-hormonal male contraceptive” (PLoS ONE, 2018):

Columns and labels:
[1] = tested on: human sperm; assay: CASA (Computer Assisted Sperm Analysis) assay of human sperm motility; format: cell-based; conditions: n = 4 donors, read-out: average relative motility index (RMI) IC50
Procedure: Human semen samples were obtained from the Department of Obstetrics and Gynecology, University of North Carolina Memorial Hospital, Chapel Hill, NC. […] Semen samples were allowed to liquefy for 30 minutes and subjected to standard semen analysis to determine acceptability before freezing. All samples were stored in liquid nitrogen, and de-identified by the Department of Obstetrics and Gynecology, University of North Carolina Memorial Hospital, Chapel Hill, NC before further processing. A density gradient (Isolate catalog number 99264, Irving Scientific, Irving CA, or SpermCare catalog number 2221 and 2222, InvitroCare Inc., Frederick MD) was used to prepare spermatozoa for further analysis. At least 3 independent experiments were done per assay, each using a single donor.
Computer Assisted Sperm Analysis (CASA) was conducted as previously described. Briefly sperm were washed after the density gradient with EP buffer-0.4% BSA and resuspended in modified M16 for compound treatments. Sperm were diluted to 5 x 10^6/mL in 12x75 mm glass tubes with the appropriate treatment and incubated at 37°C in 5% CO2. […] The relative mobility index (RMI) is a measure of the effect of compound on sperm and is calculated as the VSL x %normal motility and normalized to the appropriate DMSO control.

[2] = molecular target: EPPIN (Homo sapiens, UniProt O95925); assay: AlphaScreen assay of a-EAb binding to EPPIN; conditions: n = 4, read-out: IC50, inhibition of a-EAb binding to EPPIN
Chain of EPPIN (O95925 22-133): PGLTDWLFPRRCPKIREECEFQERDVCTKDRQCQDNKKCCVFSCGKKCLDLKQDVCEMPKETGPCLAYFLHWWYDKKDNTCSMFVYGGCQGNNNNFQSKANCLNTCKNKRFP
Procedure: The AlphaScreen® assay was carried as previously described. Briefly, recombinant histidine-tagged recombinant EPPIN was pre-incubated with Ni-NTA chelate donor beads (catalog number AS101, Perkin Elmer, Waltham MA) and anti-Eppin 007 antibody was pre-incubated with Protein A acceptor beads (catalog number 6760136, Perkin Elmer, Waltham MA) for 30 minutes. Equal volumes of donor and acceptor bead mixtures were pipetted into white opaque 384-well microplates (OptiPlate-384; PerkinElmer, Waltham, MA) in a final volume of 30 μL. Plates were covered with top seal and transferred to a Synergy 2 Multiplatform automated plate reader (Biotek, Winooski, VT). After shaking for 2 min, plates were read with an excitation 680/30 filter, an emission 570/100 filter and data acquired using Gen5 software (Biotek). Each set of samples was pipetted in 4 replicates. […] A specific signal for each time point was calculated by subtracting the background signal (obtained in the absence of EPPIN) from its respective total signal. […] Non-specific interactions of compound with assay components were measured at the same time with the IgG detection kit ([…] biotinylated rabbit IgG) to generate the bead interaction: 10 μg/ml donor and acceptor beads. […]

[3] = EP012 plasma half-life in rats; format: in vivo; conditions: rat, iv, preliminary testing, 1 mg/kg i.v. bolus
Procedure: Preliminary half-life measurements for EP012 were carried out by Calvert Laboratories ([…]
The intravenous formulation was prepared by mixing an appropriate amount of EP012 (1 mg/kg) with an appropriate volume of intravenous vehicle (DMSO). The pH of the intravenous formulations was confirmed to be 7.4-7.6 and instilled through a syringe filter for sterilization prior to dosing. Three Sprague Dawley male rats (8-14 weeks; 300 to 325 g) were surgically implanted with a catheter in a jugular vein using polyurethane tubing and glycerol or dextrose solution as the lumen lock solution. The intravenous formulation was administered as a bolus injection into a lateral tail vein.
Serial blood samples (~0.30 mL each), were obtained from each animal via the jugular vein catheter at the following timepoints post-dose: 0.083, 0.167, 0.333, 0.5, 1, 2, 4, 8, 12, and 24 hours. Plasma (~125 µL per sample) was harvested following centrifugation of the chilled blood samples at 3000 RPM for 10 minutes at +4 °C. Derived plasma was transferred into prelabeled plastic vials and stored frozen at approximately -70 °C or lower until processing.
Sample preparation and LC-MS/MS analysis were done by OpAns LLC (Durham, NC). Plasma samples (both rat and macaque) were thawed at room temperature and processed by adding 160 µL of methanol (including 10 µL internal standard) to 25 µL of the sample. […]

`COC(=O)NNc1nc(Nc2ccc(NC(=O)OC)c(O)c2)nc(SCC(=O)O)n1` [EP012] showed an IC50 [1] of 33.4 µM, an IC50 [2] of 55.4 µM and a half-life [3] of under 4 min.
